Results as given in patent publication US11168086B2, “Methods of synthesizing pyrazine compounds” (Hoffmann-La Roche Inc., priority 2015, dated 2021).

System: HBV
Test: HBV inhibition assay: anti-HBV activity in vitro in HepG2.2.15 cells (extracellular HBV DNA by qPCR)
Type: cell-based
Details: Hepatitis B virus, 120 h, five days after compound treatment, extracellular HBV DNA in culture supernatant by qPCR, concentration at which HBV replication is inhibited by 50%
Outline: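 HepG2.2.15 cells (stably carrying HBV genome) treated with half-log serially diluted compounds at 0.5% DMSO final for five days. Extracellular HBV DNA in supernatant quantified by qPCR after Proteinase K digestion; EC50 is concentration giving 50% inhibition of replication.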

Compound | EC50 [nM]
C[C@H]1Cn2ncc(N3CC(C)(C)COC3=O)c2CN1C(=O)Nc1cc(F)c(F)c(F)c1 [Example 294, (6S)-3-(5,5-dimethyl-2-oxo-1,3-oxazinan-3-yl)-6-methyl-N-(3,4,5-trifluorophenyl)-6,7-dihydro-4H-pyrazolo[1,5-a]pyrazine-5-carboxamide] | 13
Cc1cc(NC(=O)N2Cc3c(-c4ccc(F)cn4)cnn3CC2C)cc(F)c1F (stereo not shown) [Example 156, N-(3,4-difluoro-5-methyl-phenyl)-3-(5-fluoro-2-pyridyl)-6-methyl-6,7-dihydro-4H-pyrazolo[1,5-a]pyrazine-5-carboxamide] | 25
CC1CCN(c2cnn3c2CN(C(=O)Nc2cc(F)c(F)c(F)c2)[C@@H](C)C3)C(=O)O1 (stereo partly drawn) [Example 425, (6S)-6-methyl-3-(6-methyl-2-oxo-1,3-oxazinan-3-yl)-N-(3,4,5-trifluorophenyl)-6,7-dihydro-4H-pyrazolo[1,5-a]pyrazine-5-carboxamide] | 87
C[C@H]1Cn2ncc(N3CC(Nc4ncc(F)cn4)CC3=O)c2CN1C(=O)Nc1cc(F)c(F)c(F)c1 (stereo partly drawn) [Example 414, (6S)-3-[4-[(5-fluoropyrimidin-2-yl)amino]-2-oxo-pyrrolidin-1-yl]-6-methyl-N-(3,4,5-trifluorophenyl)-6,7-dihydro-4H-pyrazolo[1,5-a]pyrazine-5-carboxamide] | 17
C[C@H]1Cn2ncc(N3CC(c4ccccc4)CC3=O)c2CN1C(=O)Nc1cc(F)c(F)c(F)c1 (stereo partly drawn) [Example 309, (6S)-6-methyl-3-(2-oxo-4-phenyl-pyrrolidin-1-yl)-N-(3,4,5-trifluorophenyl)-6,7-dihydro-4H-pyrazolo[1,5-a]pyrazine-5-carboxamide] | 5
COCC1CC(=O)N(c2cnn3c2CN(C(=O)Nc2cc(F)c(F)c(F)c2)[C@@H](C)C3)C1 (stereo partly drawn) [Example 299, (6S)-3-[4-(methoxymethyl)-2-oxo-pyrrolidin-1-yl]-6-methyl-N-(3,4,5-trifluorophenyl)-6,7-dihydro-4H-pyrazolo[1,5-a]pyrazine-5-carboxamide] | 80
C[C@H]1Cn2ncc(N3CC(N(C)C(=O)c4ncco4)CC3=O)c2CN1C(=O)Nc1cc(F)c(F)c(F)c1 (stereo partly drawn) [Example 318, N-methyl-N-[1-[(6S)-6-methyl-5-[(3,4,5-trifluorophenyl)carbamoyl]-6,7-dihydro-4H-pyrazolo[1,5-a]pyrazin-3-yl]-5-oxo-pyrrolidin-3-yl]oxazole-2-carboxamide] | 45
C[C@H]1Cn2ncc(N3CCOCC3=O)c2CN1C(=O)Nc1cc(F)c(F)c(Cl)c1 [Example 235, (6S)—N-(3-chloro-4,5-difluoro-phenyl)-6-methyl-3-(3-oxomorpholin-4-yl)-6,7-dihydro-4H-pyrazolo[1,5-a]pyrazine-5-carboxamide] | 39
C[C@@H]1CN(C(=O)C2CC(=O)N(c3cnn4c3CN(C(=O)Nc3cc(F)c(F)c(F)c3)[C@@H](C)C4)C2)CCO1 (stereo partly drawn) [Example 394, (6S)-6-methyl-3-[4-[(2R)-2-methylmorpholine-4-carbonyl]-2-oxo-pyrrolidin-1-yl]-N-(3,4,5-trifluorophenyl)-6,7-dihydro-4H-pyrazolo[1,5-a]pyrazine-5-carboxamide] | 65
C[C@@H]1[C@H](C)N(C(=O)Nc2cc(F)c(F)c(F)c2)Cc2c(N3CCCC3=O)cnn21 [Example 261, (6S,7R)-6,7-dimethyl-3-(2-oxopyrrolidin-1-yl)-N-(3,4,5-trifluorophenyl)-6,7-dihydro-4H-pyrazolo[1,5-a]pyrazine-5-carboxamide] | 40
C[C@H]1[C@H](C)n2ncc(N3CCOCC3=O)c2CN1C(=O)Nc1cc(F)c(F)c(F)c1 [Example 274, (6S,7S)-6,7-dimethyl-3-(3-oxomorpholin-4-yl)-N-(3,4,5-trifluorophenyl)-6,7-dihydro-4H-pyrazolo[1,5-a]pyrazine-5-carboxamide] | 40
O=C(Nc1cc(F)c(F)c(F)c1)N1CCn2ncc(-c3ccc(F)cc3F)c2C1 [Example 51, 3-(2,4-difluorophenyl)-N-(3,4,5-trifluorophenyl)-6,7-dihydro-4H-pyrazolo[1,5-a]pyrazine-5-carboxamide] | 68
C[C@H]1Cn2ncc(N3CC(C)(C(=O)N4CCC(F)(F)C4)CC3=O)c2CN1C(=O)Nc1cc(F)c(F)c(F)c1 (stereo partly drawn) [Example 400, (6S)-3-[4-(3,3-difluoropyrrolidine-1-carbonyl)-4-methyl-2-oxo-pyrrolidin-1-yl]-6-methyl-N-(3,4,5-trifluorophenyl)-6,7-dihydro-4H-pyrazolo[1,5-a]pyrazine-5-carboxamide] | 94
C[C@H]1Cn2ncc(N3CC4(CC4)CC3=O)c2CN1C(=O)Nc1cc(F)c(F)c(F)c1 [Example 252, (6S)-6-methyl-3-(6-oxo-5-azaspiro[2.4]heptan-5-yl)-N-(3,4,5-trifluorophenyl)-6,7-dihydro-4H-pyrazolo[1,5-a]pyrazine-5-carboxamide] | 15
C[C@H]1Cn2ncc(N3C[C@@H](Oc4ncccn4)[C@H](O)C3=O)c2CN1C(=O)Nc1cc(F)c(F)c(F)c1 [Example 428, (6S)-3-[(3S,4R)-3-hydroxy-2-oxo-4-pyrimidin-2-yloxy-pyrrolidin-1-yl]-6-methyl-N-(3,4,5-trifluorophenyl)-6,7-dihydro-4H-pyrazolo[1,5-a]pyrazine-5-carboxamide] | 6
C[C@H]1Cn2ncc(N3CCNC3=O)c2CN1C(=O)Nc1cc(F)c(F)c(F)c1 [Example 368, (6S)-6-methyl-3-(2-oxoimidazolidin-1-yl)-N-(3,4,5-trifluorophenyl)-6,7-dihydro-4H-pyrazolo[1,5-a]pyrazine-5-carboxamide] | 47
CC1Cn2ncc(N3CCCC3=O)c2CN1C(=O)Nc1cc(F)c(F)c(F)c1 (stereo not shown) [Example 183, 6-methyl-3-(2-oxopyrrolidin-1-yl)-N-(3,4,5-trifluorophenyl)-6,7-dihydro-4H-pyrazolo[1,5-a]pyrazine-5-carboxamide] | 68
C[C@H]1Cn2ncc(N3CC(COc4ncccn4)CC3=O)c2CN1C(=O)Nc1cc(F)c(F)c(F)c1 (stereo partly drawn) [Example 267, (6S)-6-methyl-3-[2-oxo-4-(pyrimidin-2-yloxymethyl)pyrrolidin-1-yl]-N-(3,4,5-trifluorophenyl)-6,7-dihydro-4H-pyrazolo[1,5-a]pyrazine-5-carboxamide] | 39
O=C(Nc1ccc(F)c(Cl)c1)N1CCn2ncc(N3CCCC3=O)c2C1 [Example 170, N-(3-chloro-4-fluoro-phenyl)-3-(2-oxopyrrolidin-1-yl)-6,7-dihydro-4H-pyrazolo[1,5-a]pyrazine-5-carboxamide] | 46
O=C(Nc1ccc(F)c(Cl)c1)N1CCn2ncc(-c3ccc(F)cc3)c2C1 [Example 21, N-(3-chloro-4-fluoro-phenyl)-3-(4-fluorophenyl)-6,7-dihydro-4H-pyrazolo[1,5-a]pyrazine-5-carboxamide] | 76
C[C@H]1[C@H](C)n2ncc(N3CCNC3=O)c2CN1C(=O)Nc1cc(F)c(F)c(F)c1 [Example 273, (6S,7S)-6,7-dimethyl-3-(2-oxoimidazolidin-1-yl)-N-(3,4,5-trifluorophenyl)-6,7-dihydro-4H-pyrazolo[1,5-a]pyrazine-5-carboxamide] | 39
CC1CN(c2cnn3c2CN(C(=O)Nc2ccc(F)c(Cl)c2)[C@@H](C)C3)C(=O)N1 (stereo partly drawn) [Example 326, (6S)—N-(3-chloro-4-fluoro-phenyl)-6-methyl-3-(4-methyl-2-oxo-imidazolidin-1-yl)-6,7-dihydro-4H-pyrazolo[1,5-a]pyrazine-5-carboxamide] | 46
